From ChEMBL document CHEMBL1151531, “Taxol structure-activity relationships: synthesis and biological evaluation of taxol analogs modified at C-7” (Bioorg Med Chem Lett, 1994)

How the values were obtained:
Mus musculus [1] = assay: Compound was evaluated in vivo against i.p. implanetd M109 tumor on day 5 and 8 post implantation at a dose of 64 mg/kg/injection when administered i.p; format: functional; conditions: route intraperitoneal
HCT-116 = assay: In vitro inhibition of proliferation of human colon cancer line 116 after 72 hrs incubation.; format: functional, cell-based; conditions: HCT-116, 72 h
[2] = target: Tubulin alpha chain (Sus scrofa) (UniProt P02550); assay: Initial tubulin polymerization rate relative to taxol.; format: functional
Mus musculus [3] = assay: Compound was evaluated in vivo against i.p. implanetd M109 tumor on day 5 and 8 post implantation at a dose of 50 (mg/kg/inj)when administered i.p; format: functional
Mus musculus [4] = assay: Compound was evaluated in vivo against i.p. implanetd M109 tumor on day 5 and 8 post implantation at a dose of 80 mg/kg/injection when administered i.p; format: functional; conditions: route intraperitoneal
Mus musculus [5] = assay: Compound was evaluated in vivo against i.p. implanetd M109 tumor on day 5 and 8 post implantation at a dose of 132 mg/kg/injection when administered i.p; format: functional; conditions: route intraperitoneal
Mus musculus [6] = assay: Compound was evaluated in vivo against i.p. implanetd M109 tumor on day 5 and 8 post implantation at a dose of 40 mg/kg/injection when administered i.p; format: functional; conditions: route intraperitoneal
Mus musculus [7] = assay: Compound was evaluated in vivo against i.p. implanetd M109 tumor on day 5 and 8 post implantation at a dose of 60 mg/kg/injection when administered i.p; format: functional; conditions: route intraperitoneal
Mus musculus [8] = assay: Compound was evaluated in vivo against i.p. implanetd M109 tumor on day 5 and 8 post implantation at a dose of 32 mg/kg/injection when administered i.p; format: functional; conditions: route intraperitoneal
Mus musculus [9] = assay: Compound was evaluated in vivo against i.p. implanetd M109 tumor on day 5 and 8 post implantation at a dose of 30 mg/kg/injection when administered i.p; format: functional; conditions: route intraperitoneal
Mus musculus [10] = assay: Compound was evaluated in vivo against i.p. implanetd M109 tumor on day 5 and 8 post implantation when administered i.p.; Scheduled; format: functional, organism-based
Mus musculus [11] = assay: Compound was evaluated in vivo against i.p. implanted M109 tumor on day 5 and 8 post implantation at a dose of 50-75 mg/kg/injection when administered i.p; format: functional

Tubulin alpha chain (Sus scrofa), sequence (P02550 whole entry, looked up): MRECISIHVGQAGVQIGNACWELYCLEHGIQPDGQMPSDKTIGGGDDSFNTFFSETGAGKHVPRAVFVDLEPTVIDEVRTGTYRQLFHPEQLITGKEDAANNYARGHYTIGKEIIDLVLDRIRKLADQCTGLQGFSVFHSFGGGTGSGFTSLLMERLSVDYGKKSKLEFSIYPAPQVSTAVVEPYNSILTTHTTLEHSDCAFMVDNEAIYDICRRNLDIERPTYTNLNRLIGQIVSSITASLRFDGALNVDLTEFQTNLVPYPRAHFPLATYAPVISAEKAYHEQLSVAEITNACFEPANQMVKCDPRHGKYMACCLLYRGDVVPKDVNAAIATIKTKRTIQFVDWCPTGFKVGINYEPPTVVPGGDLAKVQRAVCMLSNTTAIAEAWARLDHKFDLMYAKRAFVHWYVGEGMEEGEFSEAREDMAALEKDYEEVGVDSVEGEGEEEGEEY

IC50 (HCT-116) [nM]	Initial rate ratio [2]	SMILES	also measured
1.6	0.8	CC(=O)O[C@H]1C(=O)[C@]2(C)CC[C@H]3OC[C@@]3(OC(C)=O)C2[C@H](OC(=O)c2ccccc2)[C@]2(O)C[C@H](OC(=O)[C@H](O)[C@@H](NC(=O)OC(C)(C)C)c3ccccc3)C(C)=C1C2(C)C (stereo partly drawn)	Max T/C (Mus musculus [1]): 156
–	1.1	CC(=O)O[C@H]1C(=O)[C@@]2(C)C([C@H](OC(=O)c3ccccc3)[C@]3(O)C[C@H](OC(=O)[C@H](O)[C@@H](NC(=O)c4ccccc4)c4ccccc4)C(C)=C1C3(C)C)[C@]1(OC(C)=O)CO[C@@H]1C[C@@H]2OS(C)(=O)=O (stereo partly drawn)	–
> 60	0	CC(=O)O[C@H]1C(=O)[C@]2(C)C(O[Si](C)(C)C)C[C@H]3OC[C@@]3(OC(C)=O)C2[C@H](OC(=O)c2ccccc2)[C@]2(O)C[C@H](OC(=O)[C@H](O)[C@@H](NC(=O)c3ccccc3)c3ccccc3)C(C)=C1C2(C)C (stereo partly drawn)	–
> 78	0.53	CC[Si](CC)(CC)OC1C[C@H]2OC[C@@]2(OC(C)=O)C2[C@H](OC(=O)c3ccccc3)[C@]3(O)C[C@H](OC(=O)[C@H](O)[C@@H](NC(=O)c4ccccc4)c4ccccc4)C(C)=C([C@@H](OC(C)=O)C(=O)[C@]12C)C3(C)C (stereo partly drawn)	–
> 78	0	CC(=O)O[C@H]1C(=O)[C@]2(C)C(O[Si](C)(C)c3ccccc3)C[C@H]3OC[C@@]3(OC(C)=O)C2[C@H](OC(=O)c2ccccc2)[C@]2(O)C[C@H](OC(=O)[C@H](O)[C@@H](NC(=O)c3ccccc3)c3ccccc3)C(C)=C1C2(C)C (stereo partly drawn)	–
4	0.23	CC(=O)O[C@H]1C(=O)[C@]2(C)CC[C@H]3OC[C@@]3(OC(C)=O)C2[C@H](OC(=O)c2ccccc2)[C@]2(O)C[C@H](OC(=O)[C@H](O)[C@@H](NC(=O)c3ccccc3)c3ccccc3)C(C)=C1C2(C)C (stereo partly drawn)	Max T/C (Mus musculus [3]): 157
7	0.81	CC(=O)O[C@H]1C(=O)[C@@]2(C)C([C@H](OC(=O)c3ccccc3)[C@]3(O)C[C@H](OC(=O)[C@H](O)[C@@H](NC(=O)c4ccccc4)c4ccccc4)C(C)=C1C3(C)C)[C@]1(OC(C)=O)CO[C@@H]1C[C@@H]2OC(=O)CCl (stereo partly drawn)	–
> 3900	0.71	CC(=O)O[C@H]1C(=O)[C@]2(C)C(OC(=O)NCCCC(=O)O)C[C@H]3OC[C@@]3(OC(C)=O)C2[C@H](OC(=O)c2ccccc2)[C@]2(O)C[C@H](OC(=O)[C@H](O)[C@@H](NC(=O)c3ccccc3)c3ccccc3)C(C)=C1C2(C)C (stereo partly drawn)	–
6	0.72	CCOC(=O)O[C@H]1C[C@H]2OC[C@@]2(OC(C)=O)C2[C@H](OC(=O)c3ccccc3)[C@]3(O)C[C@H](OC(=O)[C@H](O)[C@@H](NC(=O)c4ccccc4)c4ccccc4)C(C)=C([C@@H](OC(C)=O)C(=O)[C@@]21C)C3(C)C (stereo partly drawn)	Max T/C (Mus musculus [6]): 289
> 100	0.4	CC(=O)O[C@H]1C(=O)[C@]2(C)C(OC(=O)NCCN(C)C)C[C@H]3OC[C@@]3(OC(C)=O)C2[C@H](OC(=O)c2ccccc2)[C@]2(O)C[C@H](OC(=O)[C@H](O)[C@@H](NC(=O)c3ccccc3)c3ccccc3)C(C)=C1C2(C)C (stereo partly drawn)	–
46	0.96	CCCCNC(=O)OC1C[C@H]2OC[C@@]2(OC(C)=O)C2[C@H](OC(=O)c3ccccc3)[C@]3(O)C[C@H](OC(=O)[C@H](O)[C@@H](NC(=O)c4ccccc4)c4ccccc4)C(C)=C([C@@H](OC(C)=O)C(=O)[C@]12C)C3(C)C (stereo partly drawn)	–
5	1.31	CC(=O)O[C@H]1C(=O)[C@]2(C)C=C[C@H]3OC[C@@]3(OC(C)=O)C2[C@H](OC(=O)c2ccccc2)[C@]2(O)C[C@H](OC(=O)[C@H](O)[C@@H](NC(=O)c3ccccc3)c3ccccc3)C(C)=C1C2(C)C (stereo partly drawn)	Max T/C (Mus musculus [7]): 161
2	–	CC(=O)O[C@H]1C(=O)[C@@]2(C)C([C@H](OC(=O)c3ccccc3)[C@]3(O)C[C@H](OC(=O)[C@H](O)[C@@H](NC(=O)c4ccccc4)c4ccccc4)C(C)=C1C3(C)C)[C@]1(OC(C)=O)CO[C@@H]1C[C@H]2O (stereo partly drawn)	Max T/C (Mus musculus [8]): 154; Max T/C (Mus musculus [9]): 126
3	2	CC(=O)O[C@@]12CO[C@@H]1C[C@H](O)[C@@]1(C)C(=O)[C@H](O)C3=C(C)[C@@H](OC(=O)[C@H](O)[C@@H](NC(=O)OC(C)(C)C)c4ccccc4)C[C@@](O)([C@@H](OC(=O)c4ccccc4)[C@H]21)C3(C)C [DOCETAXEL]	Max T/C (Mus musculus [10]): Scheduled
–	–	CC(=O)O[C@H]1C(=O)[C@@]2(C)[C@H]([C@H](OC(=O)c3ccccc3)[C@]3(O)C[C@H](OC(=O)[C@H](O)[C@@H](NC(=O)c4ccccc4)c4ccccc4)C(C)=C1C3(C)C)[C@]1(OC(C)=O)CO[C@@H]1C[C@@H]2O [PACLITAXEL]	Max T/C (Mus musculus [11]): 276

SMILES	IC50 (HCT-116) [nM]	Initial rate ratio [2]	also measured
CC(=O)O[C@H]1C(=O)[C@]23C[C@H]2C[C@H]2OC[C@@]2(OC(C)=O)C3[C@H](OC(=O)c2ccccc2)[C@]2(O)C[C@H](OC(=O)[C@H](O)[C@@H](NC(=O)c3ccccc3)c3ccccc3)C(C)=C1C2(C)C (stereo partly drawn)	8	0.56	Max T/C (Mus musculus [4]): 156
CC(=O)O[C@H]1C(=O)[C@@]2(C)C([C@H](OC(=O)c3ccccc3)[C@]3(O)C[C@H](OC(=O)[C@H](O)[C@@H](NC(=O)c4ccccc4)c4ccccc4)C(C)=C1C3(C)C)[C@]1(OC(C)=O)CO[C@@H]1C[C@H]2F (stereo partly drawn)	11	1.45	Max T/C (Mus musculus [5]): 185
CC(=O)O[C@H]1C(=O)[C@@]2(C)C([C@H](OC(=O)c3ccccc3)[C@]3(O)C[C@H](OC(=O)[C@H](O)[C@@H](NC(=O)OC(C)(C)C)c4ccccc4)C(C)=C1C3(C)C)[C@]1(OC(C)=O)CO[C@@H]1C[C@H]2F (stereo partly drawn)	4.7	0.8	Max T/C (Mus musculus [6]): 147
